Data: patent US20240238281A1, “PIPERAZINE DERIVATIVES AND APPLICATION THEREOF” (priority 2021, published 2024)
“Also recorded” adds a separate entry of the source. Where two headings read alike, the source gives them in different places.

How the values were obtained:
[1] = biological target: T1, MC1R (Homo sapiens, UniProt Q01726); experiment: In vitro activity of MCR receptors, intracellular cAMP signal (HEK293T/MCR cell line), MC1R; format: cell-based; conditions: cAMP, HEK293T/MCR cell line; read-out: MC1R EC50
T1 construct: expressed in transfected cells
Protocol: (§1) Test purpose: to evaluate the agonistic effect of the compound on MCRs by detecting intracellular cAMP signal changes.
(§2) Cells were resuspended with 1×PBS+500 μM IBMX. 10 μL of the cell suspension was added into a 384-well plate to be tested, and the cell concentration was adjusted to 1×10^4 cells per well for later use. A pre-prepared solution of the compound to be tested was added, and dimethyl sulfoxide of the same volume was added to blank control wells. The test plate was centrifuged at 300 rpm for 1 minute, incubated at 37° C. for 30 minutes, and added with 5 μL of cAMP-d2 and 5 μL of a CAMP-cry antibody detection reagent. The test plate was centrifuged at 300 rpm for 1 minute, and incubated at room temperature for 60 minutes.

[2] = test system: MDR1-MDCKII cells; experiment: In vitro MDCK-MDR1 permeability; format: in vitro ADME; conditions: MDR1-MDCKII permeability and efflux rating
Protocol: (§3) MDR1-MDCKII cells (from the Netherlands Cancer Institute) were inoculated onto a 96-plate (from Corning) with a cell density of 2.5×10^5 cells/mL, and cultured for 4-7 days to form a co-polymeric cell monolayer. A Hank's equilibrium salt buffer (pH=7.40±0.05) containing 10 mM of 4-hydroxyethyl piperazine ethanesulfonic acid was used as a transport buffer. The bidirectional transport of the test compound at a concentration of 2 μM was tested, and the concentration of DMSO in the incubation system was controlled below 1%. After sample loading, the cell plate was placed at 37±1° C. for inoculation with 5% CO2 under a saturated humidity condition for 150 minutes. All samples were subjected to quantitative analysis using the LC-MS/MS method.
(§4) The apparent permeability coefficient (Papp, cm/s), the efflux ratio, and the recovery rate were calculated using the following formula.
(§5) The apparent permeability coefficient (Papp, cm/s) was calculated using the following formula: […]
(§6) DC/dt was the cumulative concentration (μM/s) of the compound at the receiving end per unit time; Vr was the volume of the solution at the receiving end (the solution volumes at the top and base ends were 0.075 mL and 0.250 mL, respectively); A was the relative surface area of the cell monolayer (0.0804 cm^2); and C0 was the initial concentration (nM) of a test sample at the administration end or the peak area ratio of a control sample.
(§7) The efflux ratio was calculated using the following formula: […]
(§8) The recovery rate was calculated using the following formula: […]
(§9) C0 was the initial concentration (nM) of the test sample at the administration end or the peak area ratio of the control sample; Vd was the volume of the administration end (0.075 mL on the top side and 0.250 mL on the base side); Cd and Cr were the final concentrations (nM) of the test sample at the administration end and the receiving end, or the peak area ratios of the control sample , respectively.

[3] = test system: MDR1; experiment: In vitro MDCK-MDR1 permeability; format: in vitro ADME; conditions: dog, MDCK-MDR1, pH 7.4, MDR1-MDCKII monolayer, 2 μM, 150 minutes
Protocol: as §3, §4, §5, §6, §7, §8, §9

[4] = Drug concentration in brain tissues of rats, oral gavage; format: in vivo; conditions: SD, rat, p.o. 20 mg/kg
Protocol: 3.2 6 healthy SD rats of 6-9 weeks old were selected, and the test compound was administered by oral gavage (with a solvent of 50 mM citrate buffer solution, pH=5). Two animals were randomly selected at 0.5 hour, 1 hour and 4 hours after administration respectively, and plasma and brain tissue samples were collected for quantitative analysis of all biological samples using the LC-MS/MS method.

[5] = Pharmacokinetic parameters in rat plasma; format: in vivo, SD rats; conditions: SD
Protocol: 4 healthy SD rats of 6-9 weeks old were selected and randomly divided into two groups, 2 rats in each group. One group was administered with the test compound via intravenous injection, with 5% DMSO+95% (a 10% HP-β-CD aqueous solution) as a solvent, and the other group was administered with the test compound by gavage, with a 50 mM citric acid buffer solution at pH=5 as a solvent. Plasma samples were collected from animals in both intravenous and intragastric groups at 0.083 hour, 0.25 hour, 0.5 hour, 1.0 hour, 2.0 hours, 4.0 hours, 6.0 hours, 8.0 hours and 24 hours after administration, respectively. Quantitative analysis of all biological samples was performed using an LC-MS/MS method, with WinNonlin™ Version 6.3 (Pharsight, Mountain View, CA) pharmacokinetic software, to calculate relevant pharmacokinetic parameters using a […] model linear logarithmic trapezoid method. AUCo-last represented an area under a plasma concentration time curve from a time point zero to a last time point where the concentration can be detected; p.o. represented oral administration; i.v. represented intravenous injection; T1/2 represented the half life; CL represented the clearance rate; Vd represented the apparent distribution volume; AUC0-last represented the area under the curve; Cmax represented the peak concentration; Tmax represented the peak time; and F % represented oral bioavailability.

[6] = biological target: T2, MC4R (Homo sapiens, UniProt P32245); experiment: In vitro activity of MCR receptors, intracellular cAMP signal (HEK293T/MCR cell line), MC4R; format: cell-based; conditions: cAMP, HEK293T/MCR cell line; read-out: MC4R EC50
T2 construct: expressed in transfected cells
Protocol: as §1
as §2, with “minutes. The test plate was placed in the Envision multifunctional microplate reader for reading, with a detection wavelength of 665/615 nm.” for “minutes.”

T1 sequence (Q01726 whole entry): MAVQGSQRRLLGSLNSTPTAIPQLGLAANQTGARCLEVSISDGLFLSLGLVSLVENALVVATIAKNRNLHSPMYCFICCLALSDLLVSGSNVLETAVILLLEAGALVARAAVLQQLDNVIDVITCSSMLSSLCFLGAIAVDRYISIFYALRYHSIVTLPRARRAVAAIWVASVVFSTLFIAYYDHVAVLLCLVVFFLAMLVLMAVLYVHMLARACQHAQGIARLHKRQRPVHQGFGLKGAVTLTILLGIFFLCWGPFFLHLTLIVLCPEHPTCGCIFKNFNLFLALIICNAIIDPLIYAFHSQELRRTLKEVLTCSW
T2 sequence (P32245 whole entry): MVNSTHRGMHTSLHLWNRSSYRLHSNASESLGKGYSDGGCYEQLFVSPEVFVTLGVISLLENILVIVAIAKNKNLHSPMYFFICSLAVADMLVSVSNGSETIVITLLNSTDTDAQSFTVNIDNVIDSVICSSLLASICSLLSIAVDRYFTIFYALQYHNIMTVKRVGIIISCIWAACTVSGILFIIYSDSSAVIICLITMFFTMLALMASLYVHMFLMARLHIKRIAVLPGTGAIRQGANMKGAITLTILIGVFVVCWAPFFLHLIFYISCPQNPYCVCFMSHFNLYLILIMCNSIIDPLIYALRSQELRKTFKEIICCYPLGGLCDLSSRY

For `C[C@@H]1CN(C(=O)[C@@H]2CN(C3CCOCC3)C[C@H]2c2ccc(F)cc2F)C[C@H](C)N1c1ccc(F)cc1` (single isomer, unassigned) [Compound 7], the EC50 [1] was 459 nM, the Rating [2] was “High permeability,; also recorded: low efflux” and the efflux ratio at 150 min, 2 μM [3] was 0.98. It also gave a Papp A→B at 150 min, 2 μM ([3]; pH 7.40) of 13.5 ×10⁻⁶ cm/s, a Papp B→A at 150 min, 2 μM ([3]; pH 7.40) of 13.2 ×10⁻⁶ cm/s and a concentration at 0.5 h ([4]; brain, 0.5 hour, read-out: Brain drug concentration) of 8600 nM. The concentration at 1 h ([4]; brain, 1 hour, read-out: Brain drug concentration) was 9680 nM, the concentration at 4 h ([4]; brain, 4 hours, read-out: Brain drug concentration) was 11400 nM and the Kp uu at 0.5 h ([4]; brain/plasma, 0.5 hour) was 1.5. For the same molecule, the Kp at 0.5 h ([4]; brain/plasma, 0.5 hour, read-out: Brain-to-blood ratio) was 11, the Kp uu at 1 h ([4]; brain/plasma, 1 hour) was 1.5 and the Kp at 1 h ([4]; brain/plasma, 1 hour, read-out: Brain-to-blood ratio) was 10.8. The Kp uu at 4 h ([4]; brain/plasma, 4 hours) was 1.3, the Kp at 4 h ([4]; brain/plasma, 4 hours, read-out: Brain-to-blood ratio) was 9.5 and the concentration at 0.5 h ([4]; plasma, 0.5 hour, read-out: Plasma drug concentration) was 783 nM. The concentration at 1 h ([4]; plasma, 1 hour, read-out: Plasma drug concentration) was 899 nM, the concentration at 4 h ([4]; plasma, 4 hours, read-out: Plasma drug concentration) was 1200 nM and the AUC(0-t) ([5]; iv, i.v. 2 mg/kg) was 0.897 µM·h. The Vd ([5]; iv, i.v. 2 mg/kg) was 8 L/kg, the clearance ([5]; iv, i.v. 2 mg/kg) was 73 mL/min/kg and the half-life ([5]; iv, i.v. 2 mg/kg) was 1.5 h. For the same molecule, the bioavailability ([5]; p.o. 5 mg/kg, oral bioavailability) was 37%, the AUC(0-t) ([5]; po, p.o. 5 mg/kg) was 0.796 µM·h and the Cmax ([5]; po, p.o. 5 mg/kg) was 195 nM. It also gave a Tmax ([5]; po, p.o. 5 mg/kg) of 1 h and an EC50 [6] of 12 nM.
